Results taken from US9968624B2, “Depression treatment agent” (THE UNIVERSITY OF TOKYO, priority 2014, dated 2018).

Columns and labels:
[1] = test system: mice (C57BL/6 strain, male); assay: Forced swim test (5S-ManNAcF, ManNAc, intracerebroventricular administration, 3 weeks); type: in vivo, mouse; conditions: 0.1 mmol/L in saline, intracerebroventricular by osmotic pump for 3 weeks, vs saline
Description: Using 8-9-week-old mice (C57BL/6 strain, male) having a catheter transplanted in the cerebroventricle, and carrying a connected osmotic pump (0.11 μl/hr, Alzet, No1004, 100 μl is released in 28 days) on the back, 5S-ManNAcF (0.01, 0.1 mmol/L) or ManNAc (100 mmol/L) dissolved in saline was intracerebroventricularly administered for 3 weeks (administration group: each 9-10 mice). The mice of the control group in the same age in weeks were administered with saline (control group: each 9-10 mice, SAL).
A forced swim test similar to that in Example 1 was performed at 3 weeks after administration.

[2] = test system: mice (C57BL/6 strain, male); assay: Forced swim test (5S-ManNAcF intracerebroventricular administration, one week); type: in vivo, mouse
Description: Similar to Example 3, 5S-ManNAcF (0.01, 0.1, 1 mmol/L administration group: each 9-10 mice) was administered intracerebroventricularly. The dosing period was one week. The mice of the control group in the same age in weeks were administered with saline (control group: each 9-10 mice, SAL).
A forced swim test similar to that in Example 1 was performed at 1 week after administration.

[3] = test system: mice (C57BL/6 strain, male); assay: Forced swim test (ManNAc oral administration); type: in vivo, mouse; conditions: juvenile mice (10- to 14-week-old), 5 mg/ml in drinking water for 4 weeks, 6 min test; control group about 2 min
Description: ManNAc was dissolved in drinking water, and drinking water having a concentration of 5 mg/ml was administered to juvenile mice (C57BL/6 strain, male) by administration by free drinking of water for 4 weeks in total from 10-week-old to 14-week-old (ManNAc administration group: 16 mice). The mice of the control group in the same age in weeks were allowed to take drinking water freely (control group: 16 mice).
Similarly, 5 mg/ml ManNAc-containing drinking water was administered to aged mice (C57BL/6 strain, male) by administration by free drinking of water for 4 weeks in total from […] (ManNAc administration group: 14 mice). The mice of the control group in the same age in weeks were allowed to take drinking water freely (control group: 15 mice).
According to the method described in S. C. […] The mice were graded with regard to 4 evaluation criteria: swimming, immobility, climbing, and others, and a dominant behavior was recorded every 5 sec. […]
When a mouse is forcibly placed in a water pool, it tries to swim to the shore. […] The forced swim test for 6 min enables quantification of immobility in a water tank, and the immobility has been proposed to be similar to “behavioral despair”, observed in depression.

[4] = test system: juvenile mice (C57BL/6 strain, male); assay: Social defeat test; type: in vivo, mouse; conditions: defeat stress experience mice, 5 mg/ml in drinking water for 4 weeks, latter 3 min of 5 min
Description: Under conditions similar to those in Example 1, ManNAc was administered to juvenile mice (C57BL/6 strain, male) by administration by free drinking of water for 4 weeks in total from 10-week-old to 14-week-old (ManNAc administration group: 14 mice). The mice of the control group in the same age in weeks were allowed to take drinking water freely (control group: 14 mice).
A mouse that lived with a more aggressive mouse (aggressive mouse) for a given period (1 hr) stays away from the aggressive mouse thereafter. This test method reflects higher brain functions, and was developed as a social defeat test and widely utilized as a system for evaluating social anxiety (Nature (2008) 455, 894-902). The ManNAc administration group and the control group were made to stay together with an aggressive mouse (one-to-one) for 1 hr per day, and the defeat stress was imposed for 5 days. […] The number of times the defeat stress experience mouse intruded a contact zone formed on the periphery of the compartment in which the aggressive mouse was housed, and the sniffing time of the defeat stress experience mouse were measured in the latter 3 minutes of 5 minutes. […]

[5] = test system: mice (BALB/c and C57BL/6 strains); conditions: BALB/c strain, fluoxetine 10 mg/kg/day; drug non-administration group about 125-130 sec; cited from earlier work

O=C(CF)NC1C(O)SC(CO)[C@@H](O)C1O (stereo partly drawn) [5S-ManNAcF]
total immobilization time as compared to the control group [1]: significantly decreased
total immobilization time as compared to the control group ([2]; 0.1 mmol/L in saline, intracerebroventricular by osmotic pump for one week, vs saline): significantly decreased
effect on total immobilization time, comparison of concentrations ([2]; 0.1 mmol/L vs 1 mmol/L, intracerebroventricular for one week): tendency of a higher effect at a concentration of 0.1 mmol/L than a high dose of 1 mmol/L

CC(=O)N[C@@H]1C(O)O[C@H](CO)[C@@H](O)[C@@H]1O (stereo partly drawn) [ManNAc, N-acetyl-D-mannosamine]
total immobilization time [3]: about 1 min
contact zone intrusion number [4]: a significant difference was not found
sniffing time (sniffing behavior) ([4]; water group about 20 sec or below, stress non-experience group about 30 sec): about 30 sec

CNCCC(Oc1ccc(C(F)(F)F)cc1)c1ccccc1 (stereo not shown) [fluoxetine]
immobilization time [5]: about 100 sec
